Common to all, as to type: functional
Experiment [1] addresses Substance-P receptor (Cavia porcellus) (UniProt P30547). In words: Compound was evaluated for NK-1 receptor antagonistic activity in the guinea pig trachea; Inactive.
Experiment [2] deals with T1, Substance-K receptor (Cavia porcellus, UniProt Q64077).
T1 sequence (Q64077 whole entry): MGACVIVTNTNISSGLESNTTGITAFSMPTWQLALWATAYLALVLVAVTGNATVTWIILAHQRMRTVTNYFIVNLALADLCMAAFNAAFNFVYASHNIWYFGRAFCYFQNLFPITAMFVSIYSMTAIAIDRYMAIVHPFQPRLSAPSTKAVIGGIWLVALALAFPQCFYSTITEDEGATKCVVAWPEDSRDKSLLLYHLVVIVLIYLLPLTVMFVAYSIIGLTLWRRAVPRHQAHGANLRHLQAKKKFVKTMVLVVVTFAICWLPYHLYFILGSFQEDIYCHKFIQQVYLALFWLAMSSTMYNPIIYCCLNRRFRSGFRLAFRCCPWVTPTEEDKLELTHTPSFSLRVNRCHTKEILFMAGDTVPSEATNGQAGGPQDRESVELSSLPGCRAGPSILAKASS
The experiment in a line: Compound was evaluated for NK-2 receptor antagonistic activity in the guinea pig trachea. Particulars: read-out: pA2 (converted).

Experiment [3] concerns the target T2, Neuromedin-K receptor (Cavia porcellus) (UniProt P30098).
T2 sequence (whole entry): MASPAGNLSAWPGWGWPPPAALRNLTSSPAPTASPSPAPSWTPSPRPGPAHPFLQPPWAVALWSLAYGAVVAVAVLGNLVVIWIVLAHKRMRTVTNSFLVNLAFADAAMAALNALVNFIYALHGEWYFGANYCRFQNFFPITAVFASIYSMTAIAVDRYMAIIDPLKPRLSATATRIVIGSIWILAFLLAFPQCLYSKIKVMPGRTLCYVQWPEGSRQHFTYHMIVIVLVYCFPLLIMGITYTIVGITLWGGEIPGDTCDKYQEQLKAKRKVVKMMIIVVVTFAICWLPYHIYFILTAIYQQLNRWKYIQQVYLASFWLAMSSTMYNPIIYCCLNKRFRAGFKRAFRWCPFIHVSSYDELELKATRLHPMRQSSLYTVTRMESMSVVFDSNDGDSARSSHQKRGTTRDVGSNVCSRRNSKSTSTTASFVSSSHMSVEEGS
The experiment in a line: Compound was evaluated for NK-3 receptor antagonistic activity in the guinea pig trachea; Inactive.

Calls of active or inactive are those of the source. No cut-off for these calls is given here.

Sequence of Substance-P receptor (Cavia porcellus) (P30547 whole entry): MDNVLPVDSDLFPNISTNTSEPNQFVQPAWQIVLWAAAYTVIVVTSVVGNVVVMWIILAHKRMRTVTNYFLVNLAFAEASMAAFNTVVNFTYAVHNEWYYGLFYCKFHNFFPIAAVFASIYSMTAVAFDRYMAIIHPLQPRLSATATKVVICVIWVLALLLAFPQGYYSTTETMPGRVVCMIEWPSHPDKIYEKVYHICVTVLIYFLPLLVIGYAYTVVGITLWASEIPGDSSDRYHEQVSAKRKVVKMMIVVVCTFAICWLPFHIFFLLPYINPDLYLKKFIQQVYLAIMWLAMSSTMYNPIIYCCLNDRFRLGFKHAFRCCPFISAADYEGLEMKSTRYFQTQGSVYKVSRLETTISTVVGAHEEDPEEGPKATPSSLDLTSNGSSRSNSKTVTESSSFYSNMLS

On to `O=c1c2cnn(-c3ccccc3)c2nc2scc(-c3ccccc3)n12`, for which the pA2 result in experiment [1] and in experiment [3] was “inactive” each time. For the same molecule, the Kb in experiment [2] was 0.0501 µM.

(Values after ChEMBL document CHEMBL1128906, “Synthesis and NK-2 antagonist effect of 1,6-diphenyl-pyrazolo [3,4-d]-thiazolo[3,2-a]4H-pyrimidin-4-one” (Bioorg Med Chem Lett, 1996).)
